# Assay results taken from US20210330611A1, “THERAPY FOR NEUROLOGICAL DISEASES/DISORDERS” (priority 2020, published 2021).
# Where a name gives a salt, the structure may show the parent alone. Read-outs that look alike come from different tables or passages of the source.
# Columns and labels:
# [1] = test system: fibrin-induced microglia activation; test: Image-based assay of fibrin-induced microglia activation (HTS and dose response); assay type: cell-based, rat; settings: for inhibition at 10 µM: Rattus norvegicus, Microglia, read-out: Fibrin % inhibition
# [2] = test system: fibrin- and LPS-induced microglia activation; test: cells; assay type: cell-based, rat; settings: for Hit: HTS hit classification
# [3] = test system: LPS-induced microglia activation; test: Image-based assay of LPS-induced microglia activation (HTS and dose response); assay type: cell-based, rat
# [4] = test system: primary rat microglia; test: Cell toxicity (dead cells, size <150 μm2) in coated fibrin (cFib) assay; settings: read-out: Cell Toxicity IC50 (uM) [cFib assay];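 for Fibrin % cell toxicity: share of dead cells sized under 150 µm2 at 10 µM in fibrin-stimulated microglia HTS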
# [5] = test system: primary rat microglia; test: Cell toxicity (dead cells, size <150 μm2) in LPS assay; settings: read-out: Cell Toxicity IC50 (uM) [LPS assay]
# [6] = test system: primary rat microglia
# [7] = test system: primary rat microglia; remark: listed apart in the source
# [8] = primary microglia HTS, fibrin stimulation, increased cell size (>800 μm^2) as marker of activation
# [9] = HTS of 1907 compounds, quadrant by fibrin and LPS inhibition
# [10] = hit classification in microglia HTS
# [11] = quadrant by fibrin and LPS inhibition in HTS of 1907 compounds
# [12] = LPS-induced microglia activation, dose response; read-out: LPS IC50 (uM) (Suppl. Table 7)
# [13] = Table 1; dose response 0.001-20 μM, triplicates, primary rat microglia, 48 h; read-out: LPS IC50
# [14] = dose response, LPS-induced microglia activation; read-out: LPS IC50
# [15] = primary microglia HTS, LPS stimulation; increased cell size (>800 μm^2) as marker of activation
# [16] = Rattus norvegicus, Microglia, 48 h, read-out: LPS % inhibition
# [17] = Rattus norvegicus, Microglia, 48 h, primary microglia HTS, LPS stimulation; increased cell size (>800 μm^2) as marker of activation; read-out: LPS % inhibition
# [18] = primary microglia HTS, fibrin stimulation, compounds at 10 μM
# [19] = Rattus norvegicus, Microglia, primary microglia HTS, LPS stimulation, compounds at 10 μM; read-out: LPS % inhibition
# [20] = classification by fibrin and LPS inhibition, HTS at 10 μM
# [21] = Rattus norvegicus, Microglia, read-out: LPS % inhibition
structure (smiles),measurement,setting,value
"COc1cc2c(cc1O)CC[C@@H]1[C@@H]2CC[C@]2(C)[C@@H](O)CC[C@@H]12 [2-methoxyestradiol, reference compound]",Fibrin Selectivity,[1],2
same,Fibrin Selectivity (LOG10),[1],0.21
same,IC50,"[1]; Table 1, dose response 0.001-20 μM, triplicates, primary rat microglia, 48 h, read-out: Fibrin IC50",3 µM
same,IC50,"[1]; Table 3, read-out: Fibrin IC50 (uM) (Suppl. Table 7)",3 µM
same,IC50,"[1]; dose response, fibrin-induced microglia activation, read-out: Fibrin IC50",3 µM
same,IC50,"[1]; fibrin-induced microglia activation, dose response, read-out: Fibrin IC50 (uM) (Suppl. Table 7)",3 µM
same,Fibrin % inhibition,[1]; [8],63%
same,Hit,[2],HIT (Hits were defined as molecules that exhibited greater than 50% inhibition of either fibrin or LPS activation)
same,Quadrant (FIG. 5b),[2]; [9],Q2
same,Quadrant (FIG. 5b),"[2]; Table 1, screen at 10 μM",Q2
same,Cherry-picked Hit (Suppl. Table 7),[2]; Table 3,HIT (Hits were defined as molecules that exhibited greater than 50% inhibition of either fibrin or LPS activation)
same,Quadrant (FIG. 5b),"[2]; Table 3, screen at 10 μM",Q2
same,Cherry-picked Hit (Suppl. Table 7),[2]; [10],HIT (Hits were defined as molecules that exhibited greater than 50% inhibition of either fibrin or LPS activation)
same,Quadrant (FIG. 5b),[2]; [11],Q2
same,IC50,[3]; [12],5 µM
same,IC50,[3]; [13],5 µM
same,IC50,[3]; Table 3; read-out: LPS IC50 (uM) (Suppl. Table 7),5 µM
same,IC50,[3]; [14],5 µM
same,LPS % inhibition,[3]; [15],65%
same,IC50,[4]; Table 3,> 20 µM
same,IC50,[4]; cFib assay,> 20 µM
same,IC50,[5]; LPS assay,> 20 µM
same,IC50,[5]; Table 3,> 20 µM
same,Fibrin % cell toxicity,[6],2%
same,LPS % cell toxicity,[7],2%
"CC(=O)[C@@]1(O)CC[C@H]2[C@@H]3C=C(Cl)C4=CC(=O)[C@@H]5C[C@@H]5[C@]4(C)[C@H]3CC[C@@]21C [Cyproterone, reference compound]",Fibrin % inhibition,[1]; [8],51%
same,Hit,[2],HIT (Hits were defined as molecules that exhibited greater than 50% inhibition of either fibrin or LPS activation)
same,Quadrant (FIG. 5b),[2]; [9],Q3
same,Quadrant (FIG. 5b),"[2]; Table 1, screen at 10 μM",Q3
same,Cherry-picked Hit (Suppl. Table 7),[2]; [10],HIT (Hits were defined as molecules that exhibited greater than 50% inhibition of either fibrin or LPS activation)
same,Quadrant (FIG. 5b),[2]; [11],Q3
same,IC50,[3]; [12],> 20 µM
same,IC50,[3]; [13],> 20 µM
same,IC50,[3]; [14],> 20 µM
same,LPS % inhibition,[3]; [15],5%
same,IC50,[4]; cFib assay,> 20 µM
same,IC50,[5]; LPS assay,> 20 µM
same,Fibrin % cell toxicity,[6],1%
same,LPS % cell toxicity,[7],0%
CN1CCN(CC(=O)N2c3ccccc3C(=O)Nc3cccnc32)CC1 [Pirenzepine],inhibition at 10 µM,[1],16%
same,Quadrant (FIG. 5b),[2],Q4
same,inhibition at 10 µM,[3]; [16],19%
same,Fibrin % cell toxicity,[6]; rat,0%
same,LPS % cell toxicity,[7]; rat,0%
Cc1c(O)cccc1C(=O)N[C@@H](CSc1ccccc1)[C@H](O)CN1C[C@H]2CCCC[C@H]2C[C@H]1C(=O)NC(C)(C)C [Nelfinavir],inhibition at 10 µM,[1]; [8],16%
same,Quadrant (FIG. 5b),[2]; [11],Q4
same,inhibition at 10 µM,[3]; [17],13%
same,Fibrin % cell toxicity,[6]; rat,1%
same,LPS % cell toxicity,[7]; rat,0%
CC[C@H]1[C@@H]2C[C@H]3[C@@H]4N(C)c5ccccc5[C@]45C[C@@H]([C@H]2[C@H]5O)N3[C@@H]1O [Ajmaline],inhibition at 10 µM,[1]; [18],-6%
same,Quadrant (FIG. 5b),"[2]; quadrant by fibrin and LPS inhibition, HTS at 10 μM",Q4
same,inhibition at 10 µM,[3]; [19],13%
same,Fibrin % cell toxicity,[6]; rat,1%
same,LPS % cell toxicity,[7]; rat,0%
CC(C)Cc1ccc([C@H](C)C(=O)O)cc1 [Dexibuprofen],inhibition at 10 µM,[1]; [18],-3%
same,Quadrant (FIG. 5b),[2]; [20],Q4
same,inhibition at 10 µM,[3]; [19],13%
same,Fibrin % cell toxicity,[6]; rat,1%
same,LPS % cell toxicity,[7]; rat,0%
O=S(=O)(O)NC1CCCCC1 [Cyclamic Acid],inhibition at 10 µM,[1],4%
same,Quadrant (FIG. 5b),[2],Q4
same,inhibition at 10 µM,[3]; [21],13%
same,Fibrin % cell toxicity,[6]; rat,0%
same,LPS % cell toxicity,[7]; rat,0%
O=C1CN=C(c2ccccc2)c2cc([N+](=O)[O-])ccc2N1 [Nitrazepam],inhibition at 10 µM,[1]; [8],-1%
same,Quadrant (FIG. 5b),[2]; [11],Q4
same,inhibition at 10 µM,[3]; [17],-4%
same,Fibrin % cell toxicity,[6]; rat,1%
same,LPS % cell toxicity,[7]; rat,0%
CC(C)c1nc(CN(C)C(=O)N[C@H](C(=O)N[C@@H](Cc2ccccc2)C[C@H](O)[C@H](Cc2ccccc2)NC(=O)OCc2cncs2)C(C)C)cs1 [Ritonavir],inhibition at 10 µM,"[1]; primary microglia HTS, fibrin stimulation, cell size >800 μm2 as marker of activation",-8%
same,Quadrant (FIG. 5b),[2]; classification by fibrin and LPS inhibition in HTS,Q4
same,inhibition at 10 µM,"[3]; Rattus norvegicus, Microglia, 48 h; read-out: LPS % inhibition",11%
same,Fibrin % cell toxicity,[6]; rat,0%
same,LPS % cell toxicity,[7]; rat,0%
CC(=O)Nc1nnc(S(N)(=O)=O)s1 [Acetazolamide],inhibition at 10 µM,[1],-12%
same,Quadrant (FIG. 5b),[2],Q4
same,inhibition at 10 µM,[3]; [21],4%
same,Fibrin % cell toxicity,[6]; rat,0%
same,LPS % cell toxicity,[7]; rat,1%
Oc1ccc2c3c1O[C@H]1[C@@H](O)CC[C@@]4(O)[C@@H](C2)N(CC2CCC2)CC[C@]314 [Nalbuphine],Fibrin % inhibition,[1],−8%
same,Quadrant (FIG. 5b),[2],Q4
same,inhibition at 10 µM,[3]; [16],16%
same,Fibrin % cell toxicity,[6]; rat,1%
same,LPS % cell toxicity,[7]; rat,0%
C[C@H](CCC(=O)O)[C@H]1CC[C@H]2[C@@H]3[C@H](O)C[C@@H]4C[C@H](O)CC[C@]4(C)[C@H]3C[C@H](O)[C@]12C [Cholic Acid],inhibition at 10 µM,[1],-31%
same,Quadrant (FIG. 5b),[2],Q4
same,inhibition at 10 µM,[3]; [21],-5%
same,Fibrin % cell toxicity,[6]; rat,0%
same,LPS % cell toxicity,[7]; rat,0%
COc1ccc([C@@H]2Sc3ccccc3N(CCN(C)C)C(=O)[C@@H]2OC(C)=O)cc1 [Diltiazem Hydrochloride],Fibrin % inhibition,"[1]; primary microglia HTS, fibrin stimulation, compounds at 10 μM, 10 µM",−5%
same,Quadrant (FIG. 5b),[2]; [20],Q4
same,LPS % inhibition,"[3]; primary microglia HTS, LPS stimulation, compounds at 10 μM; 10 µM",15%
same,Fibrin % cell toxicity,[6]; rat,0%
same,LPS % cell toxicity,[7]; rat,0%
O=NN(CCCl)C(=O)NC1CCCCC1 [Lomustine],inhibition at 10 µM,"[1]; primary microglia HTS, fibrin stimulation, activation = cell size >800 μm2",0%
same,Quadrant (FIG. 5b),[2]; [11],Q4
same,inhibition at 10 µM,"[3]; Rattus norvegicus, Microglia, 48 h, primary microglia HTS, LPS stimulation, activation = cell size >800 μm2; read-out: LPS % inhibition",19%
same,Fibrin % cell toxicity,[6]; rat,1%
same,LPS % cell toxicity,[7]; rat,1%
CC(=O)Nc1ccc(S(=O)(=O)c2ccc(NC(C)=O)cc2)cc1 [Acedapsone],inhibition at 10 µM,[1],0%
same,Quadrant (FIG. 5b),[2],Q4
same,inhibition at 10 µM,[3]; [21],4%
same,Fibrin % cell toxicity,[6]; rat,0%
same,LPS % cell toxicity,[7]; rat,0%
CN(C)c1cnccn1.O=S(=O)(O)O [Ampyzine Sulfate],Fibrin % inhibition,[1]; 10 µM,−18%
same,Quadrant (FIG. 5b),[2],Q4
same,LPS % inhibition,[3]; 10 µM,11%
same,Fibrin % cell toxicity,[6],0%
same,LPS % cell toxicity,[7],1%
COc1cc(Cc2cnc(N)nc2N)cc(OC)c1OC [Trimethoprim],inhibition at 10 µM,[1],-26%
same,Quadrant (FIG. 5b),[2],Q4
same,inhibition at 10 µM,[3]; [21],17%
same,Fibrin % cell toxicity,[6]; rat,0%
same,LPS % cell toxicity,[7]; rat,0%
NCCCCCC(=O)O [Aminocaproic Acid],inhibition at 10 µM,[1],5%
same,Quadrant (FIG. 5b),[2],Q4
same,inhibition at 10 µM,[3]; [21],7%
same,Fibrin % cell toxicity,[6]; rat,1%
same,LPS % cell toxicity,[7]; rat,0%
COc1ccc(CC(C)NCC(O)c2ccc(O)c(NC=O)c2)cc1 (centres unmarked) [Formoterol],inhibition at 10 µM,[1],-6%
same,Quadrant (FIG. 5b),[2],Q4
same,inhibition at 10 µM,[3]; [16],32%
same,Fibrin % cell toxicity,[6]; rat,1%
same,LPS % cell toxicity,[7]; rat,1%
Oc1ccc(Cl)cc1 [Parachlorophenol],inhibition at 10 µM,[1],21%
same,Quadrant (FIG. 5b),[2],Q4
same,inhibition at 10 µM,[3]; [16],15%
same,Fibrin % cell toxicity,[6]; rat,0%
same,LPS % cell toxicity,[7]; rat,0%
O=C1CN(/N=C/c2ccc([N+](=O)[O-])o2)C(=O)N1 [Nitrofurantoin],inhibition at 10 µM,[1],-3%
same,Quadrant (FIG. 5b),[2],Q4
same,inhibition at 10 µM,[3]; [16],11%
same,Fibrin % cell toxicity,[6]; rat,1%
same,LPS % cell toxicity,[7]; rat,0%
